{"source": "patent US20160015814A1", "about": "“Fast-acting insulin formulation comprising a substituted anionic compound and a polyanionic compound” (ADOCIA, priority 2014, published 2016)", "key": {"humans": {"tested_on": "humans", "conditions": "injected subcutaneously, diabetic patients; cited from earlier work"}, "human insulin": {"target": "human insulin (Homo sapiens, UniProt P01308)", "sequence (P01308 25-54 limits assumed)": "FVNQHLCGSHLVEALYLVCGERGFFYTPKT", "sequence (P01308 90-110 limits assumed)": "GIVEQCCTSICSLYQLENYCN", "experiment": "Test of dissolution of human insulin at its isoelectric point", "assay_type": "physicochemical", "conditions": "human insulin 100 IU/mL alone, pH 5.3", "text": "If an interaction exists between human insulin and the substituted anionic compound, it is then possible to dissolve the human insulin at its isoelectric point. […] The appearance of the solution is documented."}}, "data": [{"substance": "Human insulin: Human insulin, tested at 100 IU/mL alone in the dissolution test; isoelectric point 5.3", "values": [{"measurement": "time to hypoglycemiant effect", "setting": "humans", "value": 60, "unit": "min"}, {"measurement": "Visual appearance", "setting": "human insulin", "value": "Turbid"}]}]}
